Measured values from the NIST ThermoML archive (doi:10.1021/je030102f).

Experiment: xn = mol fraction of the nth substance listed
Conditions: 101.33 kPa, Liquid, vibrating tube

CC(C)=O [acetone] + O
mass density [kg/m3]
Conditions	x1 = 0.0988	x1 = 0.2193	x1 = 0.2973	x1 = 0.3998	x1 = 0.4986	x1 = 0.5903	x1 = 0.6984	x1 = 0.7934	x1 = 0.8916	x1 = 1
283.15 K	966.507	932.823	913.382	889.08	868.988	853.092	836.647	824.028	812.997	801.669
288.15 K	963.567	928.61	908.777	884.145	863.861	847.829	831.252	818.534	807.424	796.037
293.14 K	–	924.322	904.105	879.148	–	–	–	–	–	–
293.15 K	960.497	–	–	–	858.674	842.508	825.797	812.982	801.797	790.355
298.14 K	957.313	919.968	899.375	874.098	–	837.135	820.292	807.383	796.13	–
298.15 K	–	–	–	–	853.436	–	–	–	–	784.638
303.14 K	–	915.544	894.587	868.996	848.142	831.707	814.735	801.735	790.413	778.876
303.15 K	954.01	–	–	–	–	–	–	–	–	–
308.14 K	–	–	–	–	–	826.22	–	–	–	–
308.15 K	950.61	911.052	889.735	863.836	842.791	–	809.12	796.028	784.645	773.065
313.14 K	947.117	906.488	884.822	858.617	–	820.677	803.446	790.262	778.818	767.205
313.15 K	–	–	–	–	837.381	–	–	–	–	–
318.14 K	–	901.855	879.849	853.341	831.924	–	–	784.437	772.936	761.288
318.15 K	943.497	–	–	–	–	815.068	797.707	–	–	–
323.14 K	–	–	874.812	848.021	826.399	–	791.9	778.546	766.99	755.314
323.15 K	939.767	897.151	–	–	–	809.395	–	–	–	–

CCC(=O)O [propanoic acid] + CC(C)=O
mass density [kg/m3]
Conditions	x2 = 0	x2 = 0.1014	x2 = 0.1991	x2 = 0.3046	x2 = 0.4011	x2 = 0.5001	x2 = 0.603	x2 = 0.6887	x2 = 0.7703	x2 = 0.8987
283.15 K	1004.11	987.375	970.353	951.246	933.088	913.785	892.899	874.585	856.85	826.598
288.15 K	998.688	982.013	965.023	945.944	927.765	908.446	887.52	869.18	851.407	821.062
293.15 K	993.261	976.644	959.68	940.613	922.423	903.081	882.117	863.74	845.923	815.482
298.14 K	–	–	954.344	–	917.072	897.705	–	858.28	840.415	809.87
298.15 K	987.847	971.282	–	935.277	–	–	876.699	–	–	–
303.14 K	982.44	965.92	948.999	929.933	911.708	892.312	871.26	852.794	834.877	804.221
308.15 K	977.037	960.555	943.653	924.579	906.33	886.9	865.798	847.276	829.305	798.532
313.14 K	971.635	955.192	–	–	–	–	860.309	–	823.695	–
313.15 K	–	–	938.294	919.21	900.935	881.462	–	841.731	–	792.797
318.14 K	966.24	949.825	932.928	913.828	895.523	876.007	854.791	836.154	818.051	787.018
323.14 K	960.843	–	927.551	908.43	890.087	–	–	–	812.366	781.194
323.15 K	–	944.448	–	–	–	–	849.244	830.541	–	–

CCC(=O)O [propanoic acid] + O
mass density [kg/m3]
Conditions	x1 = 0.1298	x1 = 0.2029	x1 = 0.3012	x1 = 0.4007	x1 = 0.5008	x1 = 0.5989	x1 = 0.6974	x1 = 0.7965	x1 = 0.8915	x1 = 1
283.15 K	1026.89	1033.97	1034.47	1032.63	1029.26	1025.17	1020.51	1015.43	1010.32	1004.11
288.14 K	–	–	–	1027.99	–	–	–	–	1005.04	–
288.15 K	1023.97	1030.05	1029.92	–	1024.44	1020.22	1015.46	1010.26	–	998.688
293.14 K	–	1026.08	1025.58	–	–	–	1010.39	–	–	–
293.15 K	1020.98	–	–	1023.31	1019.59	1015.26	–	1005.1	999.76	993.261
298.14 K	–	1022.05	1021.14	–	1014.72	–	1005.31	999.927	–	–
298.15 K	1017.85	–	–	1018.61	–	1010.28	–	–	994.478	987.847
303.14 K	1014.61	–	1016.76	1013.88	1009.8	1005.29	–	994.744	–	982.44
303.15 K	–	1017.97	–	–	–	–	1000.22	–	989.192	–
308.14 K	–	–	–	–	–	–	–	989.551	–	–
308.15 K	1011.28	1013.84	1012.25	1009.12	1004.17	1000.27	995.12	–	983.905	977.037
313.14 K	1007.85	1009.64	1007.69	–	999.956	995.242	990.001	–	978.613	971.635
313.15 K	–	–	–	1004.33	–	–	–	984.345	–	–
318.14 K	1004.32	1005.39	1003.09	999.507	994.902	990.186	984.864	979.126	973.307	966.24
323.14 K	1000.71	1001.09	998.434	994.651	–	985.106	–	973.895	967.999	–
323.15 K	–	–	–	–	990.008	–	979.705	–	–	960.843
